According to patent US20120237941A1, “METHOD FOR SCREENING ACTIVE AGENTS THAT STIMULATE THE EXPRESSION OF ARNT2 TO IMPROVE THE SKIN'S BARRIER FUNCTION” (CHANEL PARFUMS BEAUTE, priority 2009, published 2012):

Test system: ARNT2 mRNA
Experiment: Stimulation of the expression of ARNT2 mRNA in normal human keratinocytes (real-time RT-PCR)
Assay type: cell-based
Settings: 0.001% active agent (w/w), 24 hours, fold vs untreated control (1.00), housekeeping gene RPLPO
Procedure: Keratinocytes derived from neonatal foreskins (Invitrogen, CA, USA) were cultured in 6-well plates in keratinocyte culture medium with supplement (EpiLife, Invitrogen). After culturing for 24 hours at 37° C., the 70% confluent cells were washed with PBS buffer (Invitrogen, CA) and incubated with basic keratinocytes culture medium (EpiLife, Invitrogen) containing the active agent to be tested, for 24 hours, at increasing concentrations. The cytotoxicity of the active agent was evaluated in human cultured keratinocytes before testing the activity.
Keratinocytes were treated with various concentrations of active agent in triplicates for 24 hours. The mRNA was isolated using the Qiagen RNeasy kit (Qiagen, CA) and quantified using the QuantIt kit (Invitrogen, CA).
The PCR primers were obtained from Applied Biosystems (Applied Biosystems, CA). The housekeeping gene used was RPLPO.
To quantify the expression of messenger RNA of ARNT2 in a treated sample relative to an untreated sample, real-time polymerase chain amplification (RT-PCR) was performed. […]
The relative quantification of the expression of the target gene was performed using the Pfaffl mathematical model (Pfaffl, M W, Nucleic Acids Res. 29(9), p. E45, 2001). […]
The effect of this botanical extract on the expression of the ARNT2 mRNA was evaluated on cultured keratinocytes. […]

SMILES: CC(=O)Oc1cc(C=Cc2ccc(OC(=O)CCCCC3CCSS3)cc2)cc(OC(C)=O)c1 (stereo not shown) [Active agent tested, resveratrol 3,5-diacetate-4′-lipoate]
- Stimulation of ARNT2 mRNA: 1.81
